Assay [1] has as its target T1, PDE4B (Homo sapiens, UniProt Q07343).
T1 construct: active site fragment comprising the amino acids 152-484
In words: PDE4B Scintillation Proximity (SPA) Assay. The format is biochemical. The following applies: PDE4B active site fragment amino acids 152-484; [3H]cAMP; 30° C., one hour; read-out: Experimentally determined IC50-value for PDE4B inhibition. From the text:
The IC50-values of the compounds of the invention (Examples 1.1 to 1.47) with respect to their PDE4B-inhibiting ability have been determined with a Scintillation Proximity (SPA) Assay (GE Healthcare, No. TRKQ7090). The Scintillation Proximity (SPA) Assay is based on the detection of the different affinities of the cyclic 3′-5′adenosine monophosphate (cAMP, low affinity) and the linear 5′-adenosine monophosphate (AMP, high affinity) to yttrium-silicate-scintillator beads. The cAMP-specific phosphodiesterase (PDE) PDE4B cleaves the 3′-phosphodiester bond of the tritium-labelled-[^3H]cAMP to the [^3H]5′-AMP. This [^3H]5′-AMP associates with the scintillator beads because of their higher affinity and causes scintillations (light flashes) which can be measured in a Wallac Microbeta Scintillation Counter.
10 μl of a [^3H]cAMP-solution (0.05 μCi in H2O, 10-30 Ci/mmol) are added to 89 μl of a PDE4B-enzyme-solution (active site fragment comprising the amino acids 152-484; 0.15-0.18 ng) in assay buffer (50 mM Tris HCl pH 7.5; 8.3 mM MgCl2; 1,7 mM ethylene glyclol tetraacetic acid (EGTA); 0.25 mg/ml bovine serum albumin (BSA)) and this mixture is incubated at 30° C. for one hour
a) without the compound to be tested (in the presence of 1 μl dimethylsulfoxide (DMSO), corresponding to 1% DMSO) and b) in the presence of the compound to be tested in a concentration of 125 μM, 25 μM, 5 μM, 1 μM, 200 nM, 40 nM, 8 nM, 1.6 nM, 0.32 nM, 0.064 nM, 0.0128 nM (dilution series in 5er-steps beginning from 125 μM until 0.0128 nM, in the presence of 1% DMSO).
After this incubation the reaction is stopped by the addition of 50 μl of bead-solution (500 mg beads/35 ml H2O, 18 mM zinc sulfate). In the following 45 minutes the beads have the opportunity to form a sediment. After that the scintillations are measured in the scintillation counter. If the tested compound is able to inhibit the enzymatic activity of the PDE4B-enzyme, less [^3H]AMP depending on the concentration of the tested compound is produced and less scintillations are measurable. […] The IC50-value stands for the compound concentration at which the PDE4B enzyme activity is inhibited to a half maximal value. Therefore the lower the IC50-value is the better is the PDE4B inhibition.

Assay [2] deals with Sprague Dawley (SD) rats. In words: Oral glucose tolerance test in overnight fasted male Sprague Dawley rats. Conditions: 60 min before oral glucose load 2 g/kg, versus vehicle control. The format is in vivo, rat. As to the method:
An oral glucose tolerance test is performed in overnight fasted male Sprague Dawley (SD) rats (RjHan:SD), with a weight of 320-350 g. A pre-dose blood sample is obtained by tail bleed. Blood glucose is measured with a glucometer, and the animals are randomized for blood glucose (n=6/group). Subsequently, the groups receive a single oral administration of either vehicle alone (0.5% aqueous hydroxyethyl-cellulose) or vehicle containing one of the PDE4 inhibitors. The animals receive an oral glucose load (2 g/kg) 60 min after compound administration. Blood glucose is measured in tail blood 15 min, 30 min, 60 min, 90 min, and 120 min after the glucose challenge. Glucose excursion is quantified by calculating the reactive glucose AUC (area under the curve). The data are presented as mean±SEM (standard error of mean). The two-sided unpaired Student t-test is used for statistical comparison of the control group and the active groups.
“Cpd. A” is the PDE4 inhibitor Example 1.35 at a dose of 1 and 3 mg/kg. “Cpd. B” is the PDE4 inhibitor Example 1.46 at a dose of 1 and 3 mg/kg. P values versus control are indicated by symbols above the bars (*, p<0.05). Cpd. A (=Example 1.35) reduces glucose excursion by 13.2 (p=0.09) and 15.0% (p=0.11) with a dose of 1 and 3 mg/kg, respectively. Cpd. […] Cpd.

From patent US20140228286A1, “SPECIFIC PDE4B-INHIBITORS FOR THE TREATMENT OF DIABETES MELLITUS” (BOEHRINGER INGELHEIM INTERNATIONAL GMBH, priority 2013, published 2014) come the findings set out here.

The IC50 is the concentration that inhibits the measured activity by half.

T1 sequence (Q07343 324-656): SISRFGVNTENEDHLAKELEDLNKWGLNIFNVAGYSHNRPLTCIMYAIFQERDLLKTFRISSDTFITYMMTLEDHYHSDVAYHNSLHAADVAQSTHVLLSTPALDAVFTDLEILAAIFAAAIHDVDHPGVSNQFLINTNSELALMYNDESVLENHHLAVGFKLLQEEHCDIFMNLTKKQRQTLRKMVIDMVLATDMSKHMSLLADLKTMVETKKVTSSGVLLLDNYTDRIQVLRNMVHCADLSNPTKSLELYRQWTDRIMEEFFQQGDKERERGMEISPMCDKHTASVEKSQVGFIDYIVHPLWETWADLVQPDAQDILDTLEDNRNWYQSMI

As for `[O-][S+]1CCc2nc(N3CCC(Oc4ccc(Cl)cc4)CC3)nc(NC3CCOCC3)c21` (centres unmarked) [Example 1.35, {2-[4-(4-chlorophenoxy)-piperidin-1-yl]-5-oxo-6,7-dihydro-5H-5λ^4-thieno[3,2-d]pyrimidin-4-yl}-(tetrahydropyran-4-yl)-amine], the IC50 in assay [1] was determined as 3.9 nM. Also, the “reduces glucose excursion (reactive glucose AUC)” value in assay [2] (single oral dose 1 mg/kg) was 13.2%; in assay [2] (single oral dose 3 mg/kg), 15.0%.
As for `[O-][S+]1CCc2nc(N3CCC(c4ncc(Cl)cn4)CC3)nc(NC3(CO)CCC3)c21` (centres unmarked) [Example 1.46, (1-{2-[4-(5-Chloro-pyrimidin-2-yl)-piperidin-1-yl]-5-oxo-6,7-dihydro-5H-5λ^4-thieno[3,2-d]pyrimidin-4-yl-amino}-cyclobutyl)-methanol], the “reduces glucose excursion (reactive glucose AUC)” value in assay [2] (single oral dose 1 mg/kg) is on record as 26.8%; in assay [2] (single oral dose 3 mg/kg) it was 18.4%.
For `[O-][S+]1CCc2nc(N3CCC(c4noc5cc(F)ccc45)CC3)nc(NC3(CO)CC3)c21` (centres unmarked) [Example 1.17, (1-{2-[4-(6-fluorobenzo[d]isoxazol-3-yl)-piperidin-1-yl]-5-oxo-6,7-dihydro-5H-5λ^4-thieno[3,2-d]pyrimidin-4-ylamino}-cyclopropyl)-methanol], the IC50 in assay [1] worked out at 2.73 nM.
The same measure, in the same setting: the result for `COC1(c2ccc(Cl)cc2)CCN(c2nc3c(c(NC4CCOCC4)n2)[S+]([O-])CC3)CC1` (centres unmarked) [Example 1.42, {2-[4-(4-chlorophenyl)-4-methoxypiperidin-1-yl]-5-oxo-6,7-dihydro-5H-5λ^4-thieno[3,2-d]pyrimidin-4-yl}-(tetrahydropyran-4-yl)-amine] reads 3.8 nM.
Still for that read-out and setting: the figure for `Cc1nc(C2CCN(c3nc4c(c(NC5(CO)CC5)n3)[S+]([O-])CC4)CC2)oc1-c1ccc(Cl)cc1` (centres unmarked) [Example 1.40, [1-(2-{4-[5-(4-chlorophenyl)-4-methyloxazol-2-yl]-piperidin-1-yl}-5-oxo-6,7-dihydro-5H-5λ^4-thieno[3,2-d]pyrimidin-4-ylamino)-cyclopropyl]-methanol] is 0.6 nM; for `[O-][S+]1CCc2nc(N3CCC(c4ccc(F)cc4F)CC3)nc(NC3(CO)CC3)c21` (centres unmarked) [Example 1.14, (1-{2-[4-(2,4-difluorophenyl)-piperidin-1-yl]-5-oxo-6,7-dihydro-5H-5λ^4-thieno[3,2-d]pyrimidin-4-ylamino}-cyclopropyl)-methanol] it is 16 nM.
Still for that read-out and setting: the result for `Cn1nc(-c2ccco2)cc1C1CCN(c2nc3c(c(NC4CCOCC4)n2)[S+]([O-])CC3)CC1` (centres unmarked) [Example 1.29, {2-[4-(5-furan-2-yl-2-methyl-2H-pyrazol-3-yl)-piperidin-1-yl]-5-oxo-6,7-dihydro-5H-5λ^4-thieno[3,2-d]pyrimidin-4-yl}-(tetrahydropyran-4-yl)-amine] reads 1.7 nM; that for `CCc1[nH]c2ccc(F)cc2c1C1CCN(c2nc3c(c(NC4(CO)CC4)n2)[S+]([O-])CC3)CC1` (centres unmarked) [Example 1.9, (1-{2-[4-(2-ethyl-5-fluoro-1H-indol-3-yl)-piperidin-1-yl]-5-oxo-6,7-dihydro-5H-5λ^4-thieno[3,2-d]pyrimidin-4-ylamino}-cyclopropyl)-methanol], 53.8 nM.
Consider `[O-][S+]1CCc2nc(N3CCC(Oc4ccc(C5=NCCO5)cc4)CC3)nc(NC3CCOCC3)c21` (centres unmarked) [Example 1.23, (2-{4-[4-(4,5-dihydrooxazol-2-yl)-phenoxy]-piperidin-1-yl}-5-oxo-6,7-dihydro-5H-5λ^4-thieno[3,2-d]pyrimidin-4-yl)-(tetrahydropyran-4-yl)-amine], for which, in assay [1], the IC50 stood at 1.7 nM.
Regarding `[O-][S+]1CCc2nc(N3CCC(c4nc(-c5ccncc5)no4)CC3)nc(Nc3cccc(F)c3)c21` (centres unmarked) [Example 1.20, (3-fluorophenyl)-{5-oxo-2-[4-(3-pyridin-4-yl-[1,2,4]oxadiazol-5-yl)-piperidin-1-yl]-6,7-dihydro-5H-5λ^4-thieno[3,2-d]pyrimidin-4-yl}-amine], in assay [1], the IC50 was determined as 2.7 nM.
The same measure, in the same setting: the figure for `[O-][S+]1CCc2nc(N3CCC(c4ccc(Cl)cc4)CC3)nc(NC3CCOCC3)c21` (centres unmarked) [Example 1.6, {2-[4-(4-chlorophenyl)-piperidin-1-yl]-5-oxo-6,7-dihydro-5H-5λ^4-thieno[3,2-d]pyrimidin-4-yl}-(tetrahydropyran-4-yl)-amine] is 4.7 nM.
